ChEMBL document CHEMBL1201862, “PubChem BioAssay data set” (2004)
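Briefly, cells in 96-well plates were exposed to five compound concentrations for 48 h, and endpoints were estimated by linear interpolation. Here, GI50 denotes the concentration required for 50% inhibition of growth.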 Activity calls are given as the source filed them. Rule as the data show it: active = GI50 up to about 1.1 µM and inactive = higher.

How the values were obtained:
Assay in all cases: growth of human tumour cells (NCI), 48 h
[1] = system: CCRF-CEM
[2] = system: LOX IMVI
[3] = system: OVCAR-5
[4] = system: IGROV-1
[5] = system: SK-MEL-28
[6] = system: EKVX
[7] = system: MDA-MB-231
[8] = system: RPMI-8226
[9] = system: NCI/ADR-RES
[10] = system: UACC-257
[11] = system: K562
[12] = system: MDA-N
[13] = system: OVCAR-4
[14] = system: PC-3
[15] = system: NCI-H522
[16] = system: CAKI-1
[17] = system: SF-539
[18] = system: SK-OV-3
[19] = system: MCF7

SMILES	GI50 [1]	GI50 [2]	GI50 [3]	GI50 [4]	GI50 [5]	GI50 [6]	GI50 [7]	GI50 [8]	GI50 [9]	GI50 [10]	GI50 [11]	GI50 [12]	GI50 [13]	GI50 [14]	GI50 [15]	GI50 [16]	GI50 [17]	GI50 [18]	GI50 [19]
Cc1ccc(S(=O)(=O)OCC(=O)O)cc1	> 100 µM (inactive)	> 100 µM (inactive)	> 100 µM (inactive)	> 100 µM (inactive)	> 100 µM (inactive)	> 100 µM (inactive)	> 100 µM (inactive)	> 100 µM (inactive)	> 100 µM (inactive)	> 100 µM (inactive)	> 100 µM (inactive)	> 100 µM (inactive)	> 100 µM (inactive)	> 100 µM (inactive)	> 100 µM (inactive)	> 100 µM (inactive)	–	–	–
N=C(N)SCc1nc(-c2ccc(Cl)cc2)no1	3.84 µM (inactive)	14.7 µM (inactive)	10.3 µM (inactive)	32.7 µM (inactive)	16.9 µM (inactive)	18.5 µM (inactive)	12.6 µM (inactive)	5.05 µM (inactive)	27.9 µM (inactive)	30.5 µM (inactive)	5.71 µM (inactive)	–	14.6 µM (inactive)	14 µM (inactive)	10.6 µM (inactive)	14 µM (inactive)	15.8 µM (inactive)	26.9 µM (inactive)	12.9 µM (inactive)
N#CC1C(=O)NC2=C(CCOc3c2ccc2ccccc32)C1c1ccc(F)cc1 (stereo unspecified)	28.4 µM (inactive)	–	23.5 µM (inactive)	17.3 µM (inactive)	–	36 µM (inactive)	–	–	14.9 µM (inactive)	> 100 µM (inactive)	> 100 µM (inactive)	–	31.8 µM (inactive)	19.3 µM (inactive)	37.1 µM (inactive)	31.5 µM (inactive)	44.8 µM (inactive)	24.8 µM (inactive)	36.7 µM (inactive)
CCC1OC(=O)CC(O)C(C)C(OC2OC(C)C(O)C(N(C)C)C2O)C(CC=O)CC(C)C(=O)/C=C/C2(C)OC2C1C (stereo unspecified)	17.2 µM (inactive)	16.8 µM (inactive)	47.3 µM (inactive)	23.1 µM (inactive)	54.6 µM (inactive)	40.1 µM (inactive)	24 µM (inactive)	11.1 µM (inactive)	–	17.3 µM (inactive)	12 µM (inactive)	24.4 µM (inactive)	55.1 µM (inactive)	47.9 µM (inactive)	18.5 µM (inactive)	23.1 µM (inactive)	25.2 µM (inactive)	58.7 µM (inactive)	21.5 µM (inactive)
CN(N)c1cc(=O)[nH]c(=O)[nH]1	> 100 µM (inactive)	> 100 µM (inactive)	–	> 100 µM (inactive)	> 100 µM (inactive)	> 100 µM (inactive)	> 100 µM (inactive)	> 100 µM (inactive)	> 100 µM (inactive)	> 100 µM (inactive)	> 100 µM (inactive)	> 100 µM (inactive)	> 100 µM (inactive)	> 100 µM (inactive)	> 100 µM (inactive)	6.22 µM (inactive)	> 100 µM (inactive)	> 100 µM (inactive)	–
CCCCCCCCCCCCN1[C@H]2CCC[C@H]2C(O)[C@@H]2CCC[C@@H]21 (stereo partly specified)	> 100 µM (inactive)	81.8 µM (inactive)	> 100 µM (inactive)	98.9 µM (inactive)	> 100 µM (inactive)	–	> 100 µM (inactive)	> 100 µM (inactive)	> 100 µM (inactive)	> 100 µM (inactive)	> 100 µM (inactive)	> 100 µM (inactive)	> 100 µM (inactive)	88.5 µM (inactive)	–	> 100 µM (inactive)	–	> 100 µM (inactive)	–
Cc1c(NC(=S)N/N=C\C(=N/NC(=S)Nc2c(C)n(C)n(-c3ccccc3)c2=O)c2ccccc2)c(=O)n(-c2ccccc2)n1C	–	–	> 100 µM (inactive)	–	–	> 100 µM (inactive)	> 100 µM (inactive)	–	> 100 µM (inactive)	> 100 µM (inactive)	–	–	> 100 µM (inactive)	> 100 µM (inactive)	–	> 100 µM (inactive)	> 100 µM (inactive)	> 100 µM (inactive)	–
COc1ccc(CC2C(=O)NC(C)C(=O)N(C)C3C(=O)N(C)C(Cc4ccc(O)c(c4)Oc4ccc(cc4)C3O)C(=O)NC(C)C(=O)NC(C)C(=O)N2C)cc1.COc1ccc(CC2C(=O)NC(C)C(=O)N(C)C3Cc4ccc(cc4)Oc4cc(ccc4O)CC(C(=O)NC(C)C(=O)NC(C)C(=O)N2C)N(C)C3=O)cc1 (stereo unspecified)	0.00177 µM (active)	0.00237 µM (active)	0.00995 µM (active)	0.01 µM (active)	0.00344 µM (active)	0.148 µM (active)	0.0115 µM (active)	0.0019 µM (active)	1.5 µM (inactive)	0.00322 µM (active)	0.01 µM (active)	–	0.0127 µM (active)	0.00601 µM (active)	0.01 µM (active)	0.137 µM (active)	0.00102 µM (active)	0.0179 µM (active)	0.00215 µM (active)
